Results published in US4555572A, “Pyrazolo[3,4,5-kl]acridine compositions and methods for their production and use” (Warner-Lambert Company, priority 1984, dated 1985).
Where a name gives a salt, the structure may show the parent alone. Read-outs that look alike come from different tables or passages of the source.

Tests used:
Escherichia coli = assay: in vitro antibacterial (ABMF) microdilution susceptibility test; assay type: cell-based; details: read-out: ABMF Test M.I.C. E. coli
Text: (§1) (d) Still another test protocol is the in vitro antibacterial (ABMF) test which is a recognized standard microdilution susceptibility procedure in Mueller-Hinton broth against gram-positive and gram-negative bacterial test organisms. The procedure is a modification of a state-of-the-art procedure reported in Manual of Clinical Microbiology, Lennette, E. H., ed., by Barry, A. L. and C. Thornsberry at pages 463-474 and by Gavan, T. L. and A. L. Barry at pages 459-462, American Society for Microbiology, Washington, 1980.
(§2) In the test, a given bacterial culture is used to inoculate individaul test wells of microdilution trays containing growth medium and test compound, the latter in a microdilution series: 1000, 333, 111, 37, 12, 4, 1.4, and 0.46 micrograms per milliliter. […] For convenience, values are reported for Escherichia coli, Branhamella catarrhalis, Alcaligenes viscolactis, Streptococcus pneumoniae, and Bacillus cereus

Branhamella catarrhalis = assay: as above; assay type: cell-based; details: Moraxella catarrhalis, read-out: ABMF Test M.I.C. B. cata.
Text: as §1, §2

Bacillus cereus = assay: as above; assay type: cell-based; details: read-out: ABMF Test M.I.C. B. cere.
Text: as §1, §2

Streptococcus pneumoniae = assay: as above; assay type: cell-based; details: read-out: ABMF Test M.I.C. S. pneu.
Text: as §1, §2

Alcaligenes viscolactis = assay: as above; assay type: cell-based; details: read-out: ABMF Test M.I.C. A. visc.
Text: as §1, §2

HCT-8 cells = assay: in vitro proliferating human colon adenocarcinoma (HCA) cell screen, HCT-8; assay type: cell-based; details: HCT-8 cells, 60 to 65 hours
Experimental: (a) One test protocol is the in vitro proliferating human colon adenocarcinoma (HCA) cell screen. In this test, HCT-8 cells (HCA cell line received from Yale University) are trypsinized using trypsin-EDTA. A single cell suspension is achieved by passing the cells through a 26 gauge needle with a 20-cc syringe. A cell suspension is prepared using RPMI 1640+10% FCS+50 μg/ml gentamicin sulfate with a cell concentration is approximately 30,000 cells/ml. The cell suspension is dispensed in Linbro 24-well plates; 1 ml/well. The plates are incubated for approximately 48 hours at 37° C. in a 5% CO2 atmosphere. At this time test compounds are added in the appropriate concentration. Five μl of the 200 μg/ml stock solution is added to each well in a primary test. […] of the appropriate dilution is added to each well for a titration test. The plates are reincubated an additional 60 to 65 hours at 37° C. in a 5% CO 2 atmosphere. The cells are lysed using a mix of cationic surfactant, glacial acetic acid, and sodium chloride. Two ml of the lysed cell suspension from each well is added to 8 ml of diluent. The number of nuclei is determined using a Coulter counter (ZBI model), and a percent growth for each drug concentration is calculated. From this, and ID50 (molar concentration of compound that results in 50% inhibition of growth) is determined.

[1] = system: lymphocytic leukemia P388; assay: in vivo lymphocytic leukemia P388 test; set-up: species or system CD2 F1 mice; details: Mus musculus, P388, ip, 120 h, intraperitoneally once daily for five days, read-out: P388 in vivo T/C × 100
Experimental: Another test protocol is the in vivo lymphocytic leukemia P388 test. The animals used are either male or female CD2 F1 mice, six or seven animals per test group. The tumor transplant is by intraperitoneal injection of dilute ascitic fluid containing cells of lymphocytic leukemia P388. The test compounds are administered intraperitoneally once daily for five consecutive days at various doses following tumor inoculation. The animals are weighed and survivors are recorded on a regular basis for 30 days. A compound is designated "toxic" if, at a given dose, all animals died prior to four days after the first injection of drug. A ratio of survival time for treated (T)/control (C) animals is calculated. A criterion for efficacy is a ratio T/C times 100 greater than or equal to 125. See Cancer Chemotherapy Reports, Part 3, 3, 1 (1972) for a comprehensive discussion of the protocol.

[2] = Mueller-Hinton broth, 37° C., 16-24 hours

Row | Structure (SMILES) | MIC (Escherichia coli; [2]) | MIC (Branhamella catarrhalis; [2]) | MIC (Bacillus cereus; [2]) | MIC (Streptococcus pneumoniae; [2]) | MIC (Alcaligenes viscolactis; [2]) | IC50 (HCT-8 cells; ED50, read-out: HCA ED50 Avg.) | response vs control in vivo at 6.25 mg/kg [1] | other results
1 | CCN(CC)CCn1nc2c3c(c([N+](=O)[O-])ccc31)Nc1ccc(C)cc1-2 [Example 34, N,N-Diethyl-9-methyl-5-nitropyrazolo[3,4,5-kl]acridine-2(6H)-ethanamine, methanesulfonate (salt) (1:1)] | 12.3 µg/mL | < 0.46 µg/mL | < 0.46 µg/mL | < 0.46 µg/mL | < 0.46 µg/mL | 790 nM |  | 
2 | COc1cc(OC)c2c(c1)-c1nn(CCN(C)C)c3ccc([N+](=O)[O-])c(c13)N2.CS(=O)(=O)O [Example 38, 7,9-Dimethoxy-N,N-dimethyl-5-nitropyrazolo[3,4,5-kl]acridine-2(6H)-ethanamine, methanesulfonate (1:1)] | 1000 µg/mL | 1.4 µg/mL | < 0.46 µg/mL | < 0.46 µg/mL | < 0.46 µg/mL | 64 nM |  | response vs control in vivo at 100 mg/kg ([1]; 100 mg/kg): 119%; response vs control in vivo at 200 mg/kg ([1]; 200 mg/kg): 128%
3 | CCN(CC)CCn1nc2c3c(c([N+](=O)[O-])ccc31)Nc1ccc(OC(C)=O)cc1-2 [Example 27, 2-[2-(Diethylamino)ethyl]-2,6-dihydro-5-nitropyrazolo[3,4,5-kl]acridin-9-ol, acetate (ester), methanesulfonate (salt) (1:1)] | 12.3 µg/mL | 0.46 µg/mL | 4.1 µg/mL | 1.4 µg/mL | 0.46 µg/mL | 5.3 nM | 165% | response vs control in vivo at 1.56 mg/kg [1]: 158%; response vs control in vivo at 3.12 mg/kg [1]: 218%
4 | CCN(CC)CCn1nc2c([N+](=O)[O-])cc([N+](=O)[O-])c3c2c1-c1cc(OC)ccc1N3.CS(=O)(=O)O [Example 56, N,N-Diethyl-9-methoxy-3,5-dinitropyrazolo[3,4,5-kl]acridine-1(6H)-ethanamine, methanesulfonate] |  |  |  |  |  |  |  | MIC (Escherichia coli): 1000 µg/mL; MIC (Branhamella catarrhalis): 37 µg/mL; MIC (Bacillus cereus): 333 µg/mL; MIC (Streptococcus pneumoniae): 12.3 µg/mL; MIC (Alcaligenes viscolactis): < 0.46 µg/mL
5 | CCCCOc1ccc2c(c1)-c1nn(CCN(CC)CC)c3ccc([N+](=O)[O-])c(c13)N2 [Example 20, 9-Butoxy-N,N-diethyl-5-nitropyrazolo[3,4,5-kl]acridine-2(6H)-ethanamine, methanesulfonate] |  |  |  |  |  | 73 nM | 160% | response vs control in vivo at 1.56 mg/kg [1]: 124%; response vs control in vivo at 3.12 mg/kg [1]: 125%
6 | CCN(CC)CCn1nc2c3c(c([N+](=O)[O-])ccc31)Nc1ccc(OCc3ccccc3)cc1-2 [Example 11, monomethanesulfonate] |  |  |  |  |  |  |  | response vs control in vivo at 12.5 mg/kg [1]: 127%; response vs control in vivo at 25 mg/kg ([1]; 25 mg/kg): 141%; response vs control in vivo at 50 mg/kg ([1]; 50 mg/kg): 194%; IC50 (HCT-8 cells; molar concentration for 50% inhibition of growth, read-out: HCA in vitro ID50 avg.): 2300 nM
7 | CC[N+]([O-])(CC)CCn1nc2c3c(c([N+](=O)[O-])ccc31)Nc1ccccc1-2 [Example 35, N,N-Diethyl-5-nitropyrazolo[3,4,5-kl]acridine-2(6H)-ethanamine, N-oxide, methanesulfonate salt (5:6), hydrate (4:3)] | 12.3 µg/mL | 12.3 µg/mL | > 1000 µg/mL | 12.3 µg/mL | 4.1 µg/mL |  |  | response vs control in vivo at 12.5 mg/kg [1]: 167%
8 | CCN(CC)CCn1nc2c3c(c([N+](=O)[O-])ccc31)Nc1c(OC)cc(OC)cc1-2 [Example 23, N,N-Diethyl-7,9-dimethoxy-5-nitropyrazolo[3,4,5-kl]acridine-2(6H)-ethanamine, methanesulfonate, hydrate (1:1)] | 37 µg/mL | 1.4 µg/mL | < 0.46 µg/mL | < 0.46 µg/mL | < 0.46 µg/mL | 490 nM |  | 
9 | CCCC(=O)Oc1ccc2c(c1)-c1nn(CCN(CC)CC)c3ccc([N+](=O)[O-])c(c13)N2 [Example 29, [2-[2-(Diethylamino)ethyl]-2,6-dihydro-5-nitropyrazolo[3,4,5-kl]acridin-9-yl]butanoic ester, methanesulfonate (salt) (1:1)] | 333 µg/mL | 1.4 µg/mL | 4.1 µg/mL | < 0.46 µg/mL | < 0.46 µg/mL |  | 252% | 
